We go through 22 compounds from patent publication US20180327402A1, “TRIAZOLOPYRIDINE COMPOUNDS AND METHODS OF USE THEREOF” (Genentech, Inc., priority 2015, published 2018).

Test [1] addresses T1, isolated recombinant JAK2 kinase domain (Homo sapiens, UniProt O60674).
T1 construct: isolated recombinant JAK1 and JAK2 kinase domain
Kind of test: JAK enzyme assay (Caliper LabChip), JAK2. Type of test: biochemical. Particulars: 0.2 nM JAK2, ATP 25 μM, 22° C., 30 minutes; Morrison tight binding model. The method, then: (§1) The activity of the isolated recombinant JAK1 and JAK2 kinase domain was measured by monitoring phosphorylation of a peptide derived from JAK3 (Val-Ala-Leu-Val-Asp-Gly-Tyr-Phe-Arg-Leu-Thr-Thr, fluorescently labeled on the N-terminus with 5-carboxyfluorescein) using the Caliper LabChip® technology (Caliper Life Sciences, Hopkinton, Mass.). To determine inhibition constants (Ki), compounds were diluted serially in DMSO and added to 50 μL kinase reactions containing purified enzyme (1.5 nM JAK1, or 0.2 nM JAK2), 100 mM HEPES buffer (pH 7.2), 0.015% Brij-35, 1.5 μM peptide substrate, ATP (25 μM), 10 mM MgCl2, 4 mM DTT at a final DMSO concentration of 2%. Reactions were incubated at 22° C. in 384-well polypropylene microtiter plates for 30 minutes and then stopped by addition of 25 μL of an EDTA containing solution (100 mM HEPES buffer (pH 7.2), 0.015% Brij-35, 150 mM EDTA), resulting in a final EDTA concentration of 50 mM. After termination of the kinase reaction, the proportion of phosphorylated product was determined as a fraction of total peptide substrate using the Caliper LabChip® 3000 according to the manufacturer's specifications. Ki values were then determined using the Morrison tight binding model (Morrison, J. F., Biochim. Biophys. Acta. 185:269-296 (1969); William, J. W. and Morrison, J. F., Meth. Enzymol., 63:437-467 (1979)) modified for ATP-competitive inhibition [Ki ═Ki,app/(1+[ATP]/Km,app)].

In test [2] the target is T2, isolated recombinant JAK1 kinase domain (Homo sapiens, UniProt P23458).
T2 construct: isolated recombinant JAK1 and JAK2 kinase domain
In words: JAK enzyme assay (Caliper LabChip), JAK1. It counts as biochemical. Particulars: 1.5 nM JAK1, ATP 25 μM, 22° C., 30 minutes; Morrison tight binding model. The method, then: as §1

Molecules are shown by their SMILES. pKi: −log10 of the molar value.

T1 sequence (O60674 849-1124 limits assumed): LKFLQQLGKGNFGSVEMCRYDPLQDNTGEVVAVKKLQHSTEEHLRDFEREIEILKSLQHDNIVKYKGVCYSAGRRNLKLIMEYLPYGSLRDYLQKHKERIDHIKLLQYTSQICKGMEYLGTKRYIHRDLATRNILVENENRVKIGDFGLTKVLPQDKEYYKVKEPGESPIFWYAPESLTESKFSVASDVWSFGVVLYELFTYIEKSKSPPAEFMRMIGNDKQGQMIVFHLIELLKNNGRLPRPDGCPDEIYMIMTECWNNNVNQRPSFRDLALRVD
T2 sequence (P23458 875-1153 limits assumed): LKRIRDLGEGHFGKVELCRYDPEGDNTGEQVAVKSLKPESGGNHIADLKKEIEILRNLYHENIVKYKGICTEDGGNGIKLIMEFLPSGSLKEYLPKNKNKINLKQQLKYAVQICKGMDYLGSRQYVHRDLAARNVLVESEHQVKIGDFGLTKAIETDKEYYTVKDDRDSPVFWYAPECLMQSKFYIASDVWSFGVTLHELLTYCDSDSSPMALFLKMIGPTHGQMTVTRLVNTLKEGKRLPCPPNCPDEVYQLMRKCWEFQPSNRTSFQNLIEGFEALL

Turning to `CSc1ccc(C2(CO)CCN(c3cccn4nc(Nc5cnn(CCN)c5)nc34)CC2)cc1` [R, [1-[2-[[1-(2-aminoethyl)pyrazol-4-yl]amino]-[1,2,4]triazolo[1,5-a]pyridin-8-yl]-4-(4-methylsulfanylphenyl)-4-piperidyl]methanol], the figures for the pKi in test [1] and in test [2] were 8.85 and 8.54, respectively.
Take `CN(C)CCCn1cc(Nc2nc3c(N4CCC(CO)(c5ccc(Cl)cc5)CC4)cccn3n2)cn1` [Compound 1-8, [4-(4-chlorophneyl)-1-[2-[[1-[3-(dimethylamino)propyl]pyrazol-4-yl]amino]-[1,2,4]triazolo[1,5-a]pyridin-8-yl]-4-piperidyl]methanol; formic acid]: the pKi in test [1] is 9.66; in test [2], 9.25.
Take `COCCOc1ccc(COc2ccc(-c3cccn4nc(Nc5cnn(C)c5)nc34)cc2)cn1` [Compound 3-1, 8-[4-[[6-(2-methoxyethoxy)-3-pyridyl]methoxy]phenyl]-N-(1-methylpyrazol-4-yl)-[1,2,4]triazolo[1,5-a]pyridin-2-amine]: the negative logarithm of the Ki (pKi) in test [1] was 9.49; in test [2], 9.20.
For `O=C(CCC(F)(F)F)N1CC=C(c2cccn3nc(Nc4cnn(CCO)c4)nc23)CC1` [Compound 2-2, 4,4,4-trifluoro-1-[4-[2-[[1-(2-hydroxyethyl)pyrazol-4-yl]amino]-[1,2,4]triazolo[1,5-a]pyridin-8-yl]-3,6-dihydro-2H-pyridin-1-yl]butan-1-one], the pKi is 9.15 in test [1] and 9.06 in test [2].
Turning to `OCCn1cc(Nc2nc3c(N4CCC(CO)(c5ccc(Cl)cc5)CC4)cccn3n2)cn1` [Compound 1-15, 2-[4-[[8-[4-(4-chlorophenyl)-4-(hydroxymethyl)-1-piperidyl]-[1,2,4]triazolo[1,5-a]pyridin-2-yl]amino]pyrazol-1-yl]ethanol], the pKi in test [1] is 10.05; in test [2] it was 9.96.
Regarding `OCC1(c2ccc(Cl)cc2)CCN(c2cccn3nc(Nc4cnn(C5CCNCC5)c4)nc23)CC1` [Compound 1-5, [4-(4-chlorophenyl)-1-[2-[[1-(4-piperidyl)pyrazol-4-yl]amino]-[1,2,4]triazolo[1,5-a]pyridin-8-yl]-4-piperidyl]methanol; formic acid], the pKi is 9.92 in test [1] and 9.64 in test [2].
As to `CNCCCn1cc(Nc2nc3c(-c4ccc(OCc5ccc(OCCOC)nc5)cc4)cccn3n2)cn1` [Compound 3-5, 8-[4-[[6-(2-methoxyethoxy)-3-pyridyl]methoxy]phenyl]-N-[1-[3-(methylamino)propyl]pyrazol-4-yl]-[1,2,4]triazolo[1,5-a]pyridin-2-amine], the pKi is 9.55 in test [1] and 9.13 in test [2].
Take `OCCCn1cc(Nc2nc3c(N4CCC(CO)(c5ccc(Cl)cc5)CC4)cccn3n2)cn1` [Compound 1-7, 3-[4-[[8-[4-(4-chlorophenyl)-4-(hydroxymethyl)-1-piperidyl]-[1,2,4]triazolo[1,5-a]pyridin-2-yl]amino]pyrazol-1-yl]propan-1-ol]: the values for the pKi in test [1] and in test [2] were 9.96 and 9.74, respectively.
Turning to `COCCOc1ccc(COc2ccc(-c3cccn4nc(Nc5cnn(C[C@H]6CCCN6)c5)nc34)cc2)cn1` [Compound 3-4, 8-[4-[[6-(2-methoxyethoxy)-3-pyridyl]methoxy]phenyl]-N-[1-[[(2R)-pyrrolidin-2-yl]methyl]pyrazol-4-yl]-[1,2,4]triazolo[1,5-a]pyridin-2-amine], the pKi in test [1] was 9.32; in test [2], 8.72.
Turning to `Cn1cc(Nc2nc3c(N4CCC(CNCC(F)(F)F)(c5ccc(Cl)cc5)CC4)cccn3n2)cn1` [G, 8-[4-(4-chlorophenyl)-4-[(2,2,2-trifluoroethylamino)methyl]-1-piperidyl]-N-(1-methylpyrazol-4-yl)-[1,2,4]triazolo[1,5-a]pyridin-2-amine], the pKi in test [1] was 8.54; in test [2], 8.00.
On to `COC(=O)CNCC1(c2ccc(Cl)cc2)CCN(c2cccn3nc(Nc4cnn(C)c4)nc23)CC1` [F, formic acid; methyl 2-[[4-(4-chlorophenyl)-1-[2-[(1-methylpyrazol-4-yl)amino]-[1,2,4]triazolo[1,5-a]pyridin-8-yl]-4-piperidyl]methylamino]], for which the pKi in test [1] is 9.28; in test [2] it was 8.85.
In the same order, the values of `CSc1ccc(C2(CO)CCN(c3cccn4nc(Nc5cnn(CCN6CCC(N7CCOCC7)CC6)c5)nc34)CC2)cc1` [J, [4-(4-methylsulfanylphenyl)-1-[2-[[1-[2-(4-morpholino-1-piperidyl)ethyl]pyrazol-4-yl]amino]-[1,2,4]triazolo[1,5-a]pyridin-8-yl]-4-piperidyl]methanol] are 9.33 and 8.77.
On to `CCCCn1cc(Nc2nc3c(N4CCC(CO)(c5ccc(Cl)cc5)CC4)cccn3n2)cn1` [Compound 1-11, [1-[2-[(1-butylpyrazol-4-yl)amino]-[1,2,4]triazolo[1,5-a]pyridin-8-yl]-4-(4-chlorophenyl)-4-piperidyl]methanol], for which the pKi in test [1] is 9.51; in test [2], 9.38.
With `CN(C)CC(O)C1(c2ccc(Cl)cc2)CCN(c2cccn3nc(Nc4cnn(C)c4)nc23)CC1` (racemic) [C, 1-[4-(4-chlorophenyl)-1-[2-[(1-methylpyrazol-4-yl)amino]-[1,2,4]triazolo[1,5-a]pyridin-8-yl]-4-piperidyl]-2-(dimethylamino)ethanol], the pKi in test [1] was 8.54; in test [2] it was 8.74.
Consider `Cn1cc(Nc2nc3c(N4CCC(CN)(c5ccc(Cl)cc5)CC4)cccn3n2)cn1` [D, 8-[4-(aminomethyl)-4-(4-chlorophenyl)-1-piperidyl]-N-(1-methylpyrazol-4-yl)-[1,2,4]triazolo[1,5-a]pyridin-2-amine], for which the pKi in test [1] is 9.03; in test [2], 9.26.
As for `COC(=O)CN1CCC2(CC1)CN(C(=O)N1CC=C(c3cccn4nc(Nc5cnn(C)c5)nc34)CC1)C2` [E, methyl 2-[2-[4-[2-[(1-methylpyrazol-4-yl)amino]-[1,2,4]triazolo[1,5-a]pyridin-8-yl]-3,6-dihydro-2H-pyridine-1-carbonyl]-2,7-diazaspiro[3.5]nonan-7-yl]acetate], the pKi in test [1] is 7.70; in test [2], 7.42.
In the same order, the values of `CNCCn1cc(Nc2nc3c(-c4ccc(OCc5ccc(OCCOC)nc5)cc4)cccn3n2)cn1` [Compound 3-2, 8-[4-[[6-(2-methoxyethoxy)-3-pyridyl]methoxy]phenyl]-N-[1-[2-(methylamino)ethyl]pyrazol-4-yl]-[1,2,4]triazolo[1,5-a]pyridin-2-amine] are 9.07 and 8.62.
The matching figures for `CSc1ccc(C2(CC#N)CCN(c3cccn4nc(Nc5cnn(CCN6CCN(C)C(=O)C6)c5)nc34)CC2)cc1` [O, 2-[1-[2-[[1-[2-(4-methyl-3-oxo-piperazin-1-yl)ethyl]pyrazol-4-yl]amino]-[1,2,4]triazolo[1,5-a]pyridin-8-yl]-4-(4-methylsulfanylphenyl)-4-piperidyl]acetonitrile]: 9.00 and 8.34.
For the compound `OCC1(c2ccc(Cl)cc2)CCN(c2cccn3nc(Nc4cnn(CCCN5CCOCC5)c4)nc23)CC1` [Compound 1-10, [4-(4-chlorophenyl)-1-[2-[[1-(3-morpholinopropyl)pyrazol-4-yl]amino]-[1,2,4]triazolo[1,5-a]pyridin-8-yl]-4-piperidyl]methanol; formic acid], the pKi in test [1] is 9.80; in test [2] it was 9.48.
In the case of `COCCOc1ccc(COc2ccc(-c3cccn4nc(Nc5cnn(C6CCNCC6)c5)nc34)cc2)cn1` [Compound 3-3, 8-[4-[[6-(2-methoxyethoxy)-3-pyridyl]methoxy]phenyl]-N-[1-(4-piperidyl)pyrazol-4-yl]-[1,2,4]triazolo[1,5-a]pyridin-2-amine], the pKi in test [1] is 9.70; in test [2] it was 9.09.
The matching figures for `N#CCCN1CCC(n2cc(Nc3nc4c(N5CCC(CO)(c6ccc(Cl)cc6)CC5)cccn4n3)cn2)CC1` [Compound 1-4, 3-[4-[4-[[8-[4-(4-chlorophenyl)-4-(hydroxymethyl)-1-piperidyl]-[1,2,4]triazolo[1,5-a]pyridin-2-yl]amino]pyrazol-1-yl]-1-piperidyl]propanenitrile]: 9.96 and 9.57.
Regarding `CCc1cnn(C2(CC#N)CN(c3cccn4nc(Nc5cnn(Cc6cn(C7CCN(C8COC8)CC7)nn6)c5)nc34)C2)c1` [S, 2-[3-(4-ethylpyrazol-1-yl)-1-[1-[[1-[[1-[1-(oxetan-3-yl)-4-piperidyl]triazol-4-yl]methyl]pyrazol-4-yl]amino]-[1,2,4]triazolo[1,5-a]pyridin-8-yl]azetidin-3-yl]acetonitrile], the values for the pKi in test [1] and in test [2] were 9.24 and 9.05, respectively.
